Measurements: publication PMC7335359, “Design and Synthesis of Dihydroxamic Acids as HDAC6/8/10 Inhibitors” (Chemmedchem, 2020)

What was measured:
HDAC6 = molecular target: T1, HDAC6 (Homo sapiens, UniProt Q9UBN7); experiment: HDAC-Glo I/II enzymatic assay, HDAC6; format: biochemical; conditions: read-out: HDAC6 pIC50 (converted)
T1 construct: purchased BPS Bioscience 50006
T1 sequence (Q9UBN7 1-1215): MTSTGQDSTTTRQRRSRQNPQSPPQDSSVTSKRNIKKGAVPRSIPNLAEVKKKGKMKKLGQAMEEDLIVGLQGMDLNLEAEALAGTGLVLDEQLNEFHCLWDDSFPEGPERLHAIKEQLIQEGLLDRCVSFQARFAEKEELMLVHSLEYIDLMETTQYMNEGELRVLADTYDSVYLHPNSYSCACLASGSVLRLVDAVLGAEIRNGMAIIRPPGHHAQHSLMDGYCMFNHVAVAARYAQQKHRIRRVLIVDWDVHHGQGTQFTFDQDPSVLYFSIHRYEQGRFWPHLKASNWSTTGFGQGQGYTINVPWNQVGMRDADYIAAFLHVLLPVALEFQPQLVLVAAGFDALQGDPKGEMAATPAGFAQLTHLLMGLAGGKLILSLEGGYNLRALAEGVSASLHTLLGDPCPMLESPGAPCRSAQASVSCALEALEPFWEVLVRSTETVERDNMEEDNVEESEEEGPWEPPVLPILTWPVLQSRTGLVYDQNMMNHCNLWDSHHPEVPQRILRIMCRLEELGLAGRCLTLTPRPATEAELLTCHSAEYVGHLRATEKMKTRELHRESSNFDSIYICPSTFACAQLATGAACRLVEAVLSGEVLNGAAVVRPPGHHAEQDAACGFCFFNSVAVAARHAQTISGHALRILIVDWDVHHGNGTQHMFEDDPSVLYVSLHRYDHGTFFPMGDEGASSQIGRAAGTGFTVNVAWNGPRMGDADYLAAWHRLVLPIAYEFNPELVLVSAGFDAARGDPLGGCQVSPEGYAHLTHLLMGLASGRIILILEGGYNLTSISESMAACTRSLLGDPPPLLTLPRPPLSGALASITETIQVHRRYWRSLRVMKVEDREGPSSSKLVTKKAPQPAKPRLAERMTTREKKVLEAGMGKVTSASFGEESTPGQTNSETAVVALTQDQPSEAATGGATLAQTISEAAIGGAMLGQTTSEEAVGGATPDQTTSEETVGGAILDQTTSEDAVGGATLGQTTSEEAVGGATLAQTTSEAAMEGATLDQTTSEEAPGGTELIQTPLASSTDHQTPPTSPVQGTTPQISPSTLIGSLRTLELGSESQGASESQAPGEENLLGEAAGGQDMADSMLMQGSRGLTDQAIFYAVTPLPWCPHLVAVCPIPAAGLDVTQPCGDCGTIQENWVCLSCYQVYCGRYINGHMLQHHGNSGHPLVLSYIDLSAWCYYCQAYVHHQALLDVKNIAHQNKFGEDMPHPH
Method: (§1) Inhibitors were tested at eight serial dilutions in triplicate ranging from 50 μM–86,7 pM (HDAC6) or 100 μM–8,67 nM (HDAC1,2,3,8). Drug dosing was performed from 10 mM and 0.1 mM DMSO stock solutions with a D300e Digital Dispenser (Tecan). HDACs (7 ng/mL for HDAC1, 10 ng/mL for HDAC2, 200 ng/mL for HDAC3/Ncor2 complex, 100 ng/mL for HDAC6, 200 ng/mL for HDAC8) and inhibitors were incubated together for 30 min at room temperature. After addition of the HDAC‐Glo™ I/II reagent, plates were shaken (800 rpm orbital shaker, 30 s), centrifuged (300 g, 1 min) and incubated at room temperature for 30 min. Luminescence was detected with a CLARIOstar (BMG Labtech) plate reader.

HDAC2 = molecular target: T2, HDAC2 (Homo sapiens, UniProt Q92769); experiment: HDAC-Glo I/II enzymatic assay, HDAC2; format: biochemical; conditions: read-out: HDAC2 pIC50 (converted)
T2 construct: purchased BPS Bioscience 50002
T2 sequence (Q92769 whole entry): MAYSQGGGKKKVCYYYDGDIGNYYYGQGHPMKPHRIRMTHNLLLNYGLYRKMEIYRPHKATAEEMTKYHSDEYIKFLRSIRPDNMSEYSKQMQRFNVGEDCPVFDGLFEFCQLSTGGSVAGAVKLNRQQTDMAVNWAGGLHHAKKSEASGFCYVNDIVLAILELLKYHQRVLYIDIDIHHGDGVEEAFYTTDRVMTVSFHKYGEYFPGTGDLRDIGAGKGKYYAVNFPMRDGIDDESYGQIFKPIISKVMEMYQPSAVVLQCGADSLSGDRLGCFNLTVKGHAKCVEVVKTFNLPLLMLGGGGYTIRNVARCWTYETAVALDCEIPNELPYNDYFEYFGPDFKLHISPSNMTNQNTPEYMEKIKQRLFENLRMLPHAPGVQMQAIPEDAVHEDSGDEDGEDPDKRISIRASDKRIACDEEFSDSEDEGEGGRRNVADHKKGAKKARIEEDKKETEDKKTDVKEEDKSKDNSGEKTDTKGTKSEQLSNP
Method: as §1

[1] = system: lysosomal staining with LysoTracker DND‐99 (HDAC10 knockdown phenotype); experiment: LysoTracker assay in SK-N-BE(2)C cells; format: cell-based; conditions: 10 μM inhibitor, normalized to DMSO
Method: LysoTracker assay: SK‐N‐BE(2)‐C cells were seeded into 6‐well dishes at a density of 1.5×10^5 cells per well. Cells were treated with inhibitor over night at concentrations indicated in the figure and stained the following day for 1 h with 50 nM LysoTracker® Red DND‐99 in medium under standard cell culture conditions. Cells were washed with ice‐cold RPMI without phenol‐red and trypsinized for 3 min at 37 °C. Detached cells were centrifuged for 3 min at 8600 g and re‐suspended in ice‐cold RPMI without phenol red. Mean LysoTracker fluorescence was quantified on a BD FACSCanto II platform using the PE filter setting. Data were normalized to mean LysoTracker fluorescence of solvent (DMSO) treated cells.

[2] = system: SK‐N‐BE(2)C neuroblastoma cell line; experiment: SK-N-BE(2)C cell viability assay (CellTiter-Blue); format: cell-based; conditions: SK-N-BE(2)C cells; for effect on cell viability: up to 100 μM
Method: Cell viability assay: SK‐N‐BE(2)C cells were cultured in Dulbecco's modified Eagle medium (DMEM, Lonza, Basel, Switzerland) supplemented with 10 % fetal calf serum (FCS, Sigma‐Aldrich) and 1 % non‐essential amino acids (NEAA, Lonza). SK‐N‐BE(2)C cells were seeded from a confluent flask into 96‐well plates in 100 μL full growth medium at a density of 5×10^3 cells per well the day before treatment. Cells were treated in triplicates with drug concentrations as indicated in the respective figure. Drugs were dosed from 50 mM and 200 mM stock solutions with a D300e Digital Dispenser (Tecan) and DMSO concentrations were normalized to 0.2 % for all wells. Plates were shaken (1000 rpm orbital shaker, 30 s) and incubated under standard culture conditions for 72 h. To each well 20 μL of CellTiter‐Blue® reagent (G8081, Promega) was added, plates were shaken (600 rpm orbital shaker, 20 s) and incubated at 37 °C overnight. Fluorescence was measured (extinction/emission: 570 nm/590 nm) on a FluoStar Optima (BMG Labtech) plate reader. Cell viability was normalized with untreated positive controls and cell‐free negative controls. IC50‐values were calculated as described in the BRET assay.

Compound	IC50 (HDAC6)	IC50 (HDAC2)	IC50 ([2]; 72 h)	lysosomal staining with LysoTracker DND-99 (HDAC10 knockdown phenotype) [1]	effect on cell viability [2]
CN1CCc2c(c3ccc(C(=O)NO)cc3n2Cc2ccc(C(=O)NO)cc2)C1 [Compound 3c]	47.9 nM	4170 nM	–	–	–
CN(C)Cc1cn(Cc2ccc(C(=O)NO)cc2)c2cc(C(=O)NO)ccc12 [Compound 3b]	75.9 nM	5370 nM	–	–	–
O=C(NO)c1ccc(Cc2c[nH]c3ccc(C(=O)NO)cc23)cc1 [Compound 3d]	22.4 nM	4680 nM	7000 nM	induces lysosomal acidification similar to Tubastatin A	–
CN(C)Cc1nn(Cc2ccc(C(=O)NO)cc2)c2ccccc12 [Compound 1g]	–	–	–	effective	–
O=C(NO)c1ccc(Cn2ccc3ccc(C(=O)NO)cc32)cc1 [Compound 3a]	18.2 nM	2240 nM	–	–	–

More lines, main results first:

IC50 (HDAC6)	IC50 (HDAC2)	IC50 ([2]; 72 h)	Compound	lysosomal staining with LysoTracker DND-99 (HDAC10 knockdown phenotype) [1]	effect on cell viability [2]
15.1 nM	724 nM	–	O=C(NO)c1ccc(Cn2ncc3ccc(C(=O)NO)cc32)cc1 [Compound 3f]	–	–
44.7 nM	7080 nM	–	CN(C)CCn1cc(Cc2ccc(C(=O)NO)cc2)c2cc(C(=O)NO)ccc21 [Compound 3e]	failed to produce an HDAC10 knockdown phenotype	little effect
30.2 nM	9550 nM	–	CN(C)Cc1nn(Cc2ccc(C(=O)NO)cc2)c2cc(C(=O)NO)ccc12 [Compound 3g]	failed to produce an HDAC10 knockdown phenotype	little effect
